The values that follow come from US11571378B2, “Skin care composition and method of using the same” (The Procter & Gamble Company, priority 2021, dated 2023).

For one assay, the system named is MSMO1 [SEQ ID NO: 3]. Description: Gene Modulation Assay, MSMO1 expression (qPCR). It counts as cell-based. Here is the method: (§1) This method provides a way to measure the ability of a compound or material to modulate the expression of a target gene such as PPARA [SEQ ID NO: 2] or MSMO1 [SEQ ID NO: 3]. • Cells: tert keratinocytes (tKC)
(§2) BJ Fibroblasts • Plating: Cells are plated the day before treatment. • For tert keratinocytes: 100,000 cells/well in 2 ml volume of medium/well for 12-well plates (e.g., Collagen I coated plates, Corning cat #356500), or 50,000 cells/well in 1 ml volume of medium/well for 24-well plates. • For BJ fibroblasts: 88,000 cells/well in 2 ml volume of medium/well for 12-well plates (e.g., Corning cat #3512), or 44,000 cells/well in 1 ml volume of medium/well for 24-well plates. • Medium: For tert keratinocytes: EpiLife (e.g., Thermo Fisher Scientific cat #MEPI500CA+HKGS (e.g., Thermo Fisher Scientific cat #S-001-5). • For BJ Fibroblasts: EMEM (e.g., ATCC cat #30-2003)+10% FBS (e.g., HyClone cat #SH30071.02).
(§3) Treatments are made in media and aliquoted to dose plates. When it is time to treat cells, all plates of cells are removed from the incubator at the same time. Working with one plate at a time, media is removed and treatment is added, as follows: • Media is decanted from plate of cells. • Inverted plate is blotted briefly on paper towels. • Lid is put back onto plate and plate is moved into biosafety cabinet. • Treatments are transferred from dose plate to plate of cells, one column at a time, using a multichannel pipette. Once all plates have been treated, they are moved into incubator at 37° C., with 5% CO2 and 90% humidity. About 15-30 min before the end of the treatment period, cells from representative wells of each treatment are observed via microscope, then plates are returned to the incubator. When treatment time is complete, all plates are removed from incubator. Media is decanted from each plate, and plates are blotted on paper towels. 350 ul Qiagen Buffer RLT is added to each well to lyse cells, and lysates are transferred to 2 ml Eppendorf tubes and stored at −20° C. until ready for genomics.
(§4) Cell lysates are thawed at 4° C. and then isolated using the Biomek FxP and the RNAdvance Tissue Isolation kit (Beckman Coulter, p/n A32646). The resulting RNA is quantified using the Nandrop 8000 (Nanodrop, ND-8000). cDNA is generated using 500 ng of Total RNA and Applied Biosystems High Capacity cDNA with Reverse Transcription kit (Applied Biosystems p/n 4368814). cDNA, assays, and dilutions of PrimeTime GeneExpression MasterMix (IDT, p/n ? ) are plated onto a Wafergen MyDesign SmartChip (TakaraBio, p/n 640036) using the Wafergen Nanodispenser. The chip is then loaded into the SmartChip cycler and qPCR performed using the following PCR conditions:
(§5) Hold stage: 50° C. for 2 minutes (warm up), then 95° C. for 10 minutes.
(§6) PCR stage (40 cycles): 95° C. for 15 seconds, then 60° C. for 1 minute. Export data in .txt file format for analysis.
(§7) Test compositions and control compositions were prepared as described above in the Gene Modulation Assay and tested accordingly. The pal-KT used in this example is PALESTRINA brand pal-KT from Sederma (France), and the ac-PPYL is SYNIORAGE brand tetrapeptide from BASF Care Creations (New Jersey). P+A refers to the combination of pal-KT (P), and ac-PPYL (A) [SEQ ID NO: 1].
(§8) Synergy Factor is calculated as: […]
(§9) A synergy factor greater than 1.00 with p-value ≤0.05 indicates a statistically significant synergistic effect. Preferred synergy factors are 1.3 or greater.
(§10) In this test, the amino acids from pal-KT were rearranged to form a new dipeptide, pal-TK. Test compositions and control compositions were prepared as described above in the Gene Modulation Assay and tested accordingly. Fold change factor is calculated as.
(§11) [formula] A fold change factor of greater than 1 is desired, and a fold change factor of 1.3 or greater is preferred.
(Real-time PCR tracks product formation cycle by cycle.)

The subject of another assay is PPARA [SEQ ID NO: 2]. Description: Gene Modulation Assay, PPARA expression (qPCR). It counts as cell-based. Here is the method:
as §1, §2, §3, §4, §5, §6, §7, §8, §9, §10, §11

Where [1] appears, read: pal-KT + ac-PPYL relative to pal-TK + ac-PPYL, all peptides at 1 ppm.

No end group written: not given here.

In the case of “acetyl tetrapeptide-11 (Ac-PPYL) [acetylated tetrapeptide ac-PPYL, available as SYNIORAGE from BASF Care Creations]”, the “Fold change vs. control, Ac-PPYL” value in the assay on MSMO1 [SEQ ID NO: 3] (Ac-PPYL 0.0135 ppm alone) came to 0.377; in the assay on MSMO1 [SEQ ID NO: 3] (Ac-PPYL 1 ppm alone) it was 0.496; in the assay with MSMO1 [SEQ ID NO: 3] (Ac-PPYL 13.5 ppm alone) it was 0.510; with MSMO1 [SEQ ID NO: 3] (Ac-PPYL 40.5 ppm alone), 0.560; with PPARA [SEQ ID NO: 2] (Ac-PPYL 0.0135 ppm alone), 0.70; in the assay with PPARA [SEQ ID NO: 2] (Ac-PPYL 1 ppm alone), 0.69. Also, the “Fold change vs. control, Ac-PPYL” value in the assay on PPARA [SEQ ID NO: 2] (Ac-PPYL 13.5 ppm alone) came out at 0.67; in the assay with PPARA [SEQ ID NO: 2] (Ac-PPYL 40.5 ppm alone), 0.71.

As to palmitoyl dipeptide-7 [Pal-KT], the “Fold change vs. control, Pal-KT” value is given as 4.32 in the assay with MSMO1 [SEQ ID NO: 3] (Pal-KT 1 ppm alone); 4.69 in the assay on MSMO1 [SEQ ID NO: 3] (Pal-KT 7.5 ppm alone); 5.63 in the assay on MSMO1 [SEQ ID NO: 3] (Pal-KT 15 ppm alone); 1.26 with PPARA [SEQ ID NO: 2] (Pal-KT 1 ppm alone); 1.43 in the assay with PPARA [SEQ ID NO: 2] (Pal-KT 7.5 ppm alone); 1.59 in the assay with PPARA [SEQ ID NO: 2] (Pal-KT 15 ppm alone). In addition, the Fold change factor entry in the assay with MSMO1 [SEQ ID NO: 3] (setting [1]) and in the assay with PPARA [SEQ ID NO: 2] (setting [1]) was “greater than 1.3” each time.
